In US7102027B2, “Adamantanetricarboxylic acid derivatives” (Daicel Chemical Industries, Ltd., priority 2003, dated 2006):
Like-named read-outs stand apart in the source and are kept apart here.

Experiment: Dissolution of monomer components in mesitylene to prepare a coating liquid
Type: physicochemical
Procedure: In 100 g of mesitylene were dissolved 2.48 g (8 mmol) of trimethyl ester of 1,3,5-adamantanetricarboxylic acid prepared in Example 1 and 6.42 g (12 mmol) of 3,3′-diaminobenzidinetetracyclohexanoimine [N,N′,N″,N′″-tetracyclohexylidene-3,4,3′,4′-biphenyltetramine] prepared in Preparation Example 1 at room temperature in a nitrogen atmosphere, to yield a coating liquid having a monomer concentration of 8.2% by weight. After filtrating through a filter with a pore size of 0.1 μm, the coating liquid was applied to an 8-inch silicon wafer by spin coating. This was heated at 300° C. in a nitrogen atmosphere for 30 minutes and was then heated at 400° C. for further 30 minutes, to form a film. The infrared absorption spectrum of the resulting polymer film was determined. The result is shown in FIG. 1, verifying that the target crosslinked polybenzazole film was formed.
A coating liquid was prepared by the procedure of Example • 7, except using equal amounts of • 1,3,5-adamantanetricarboxylic acid and • 3,3′-diaminobenzidine instead of trimethyl ester of • 1,3,5-adamantanetricarboxylic acid and • N,N′,N″,N′″-tetracyclohexylidene-3,4,3′,4′-biphenyltetramine, respectively. […] The infrared absorption spectrum of the resulting polymer film was determined, verifying that the target crosslinked polybenzazole film was formed.

Structure (SMILES) | solubility in the solvent (mesitylene) | solubility in the solvent (mesitylene) (procedure of Example 7: 8 mmol acid and 12 mmol amine together in 100 g mesitylene, room temperature, nitrogen atmosphere)
O=C(O)C12CC3CC(C(=O)O)(C1)CC(C(=O)O)(C3)C2 [1,3,5-adamantanetricarboxylic acid] | not sufficiently dissolved | –
Nc1ccc(-c2ccc(N)c(N)c2)cc1N [3,3′-diaminobenzidine] | – | not sufficiently dissolved
